For one compound, IC50 results are on record in ChEMBL document CHEMBL5725365, “Tyrosine kinase inhibitors” (2017).

Molecules are shown by their SMILES. pIC50: −log10 of the molar value.

The assay concerns the target Tyrosine-protein kinase BTK (Homo sapiens, UniProt Q06187). Put plainly: Enzymatic Activity Assay: A Caliper-based kinase assay (Caliper Life Sciences, Hopkinton, Mass.) was used to measure inhibition of BTK kinase activity of a compound of the present disclosure. Serial dilutions of test compounds were incubated with human recombinant BTK (0.5 nM), ATP (16 μM) and a phosphoacceptor peptide substrate FAM-[…]-NH2(1 μM) at room temperature for 3 h. The reaction was then terminated with EDTA, final concentration 20 mM and the phosphorylated reaction product was quantified on a Caliper Desktop Profiler (Caliper LabChip 3000).

Sequence of Tyrosine-protein kinase BTK (Q06187 whole entry): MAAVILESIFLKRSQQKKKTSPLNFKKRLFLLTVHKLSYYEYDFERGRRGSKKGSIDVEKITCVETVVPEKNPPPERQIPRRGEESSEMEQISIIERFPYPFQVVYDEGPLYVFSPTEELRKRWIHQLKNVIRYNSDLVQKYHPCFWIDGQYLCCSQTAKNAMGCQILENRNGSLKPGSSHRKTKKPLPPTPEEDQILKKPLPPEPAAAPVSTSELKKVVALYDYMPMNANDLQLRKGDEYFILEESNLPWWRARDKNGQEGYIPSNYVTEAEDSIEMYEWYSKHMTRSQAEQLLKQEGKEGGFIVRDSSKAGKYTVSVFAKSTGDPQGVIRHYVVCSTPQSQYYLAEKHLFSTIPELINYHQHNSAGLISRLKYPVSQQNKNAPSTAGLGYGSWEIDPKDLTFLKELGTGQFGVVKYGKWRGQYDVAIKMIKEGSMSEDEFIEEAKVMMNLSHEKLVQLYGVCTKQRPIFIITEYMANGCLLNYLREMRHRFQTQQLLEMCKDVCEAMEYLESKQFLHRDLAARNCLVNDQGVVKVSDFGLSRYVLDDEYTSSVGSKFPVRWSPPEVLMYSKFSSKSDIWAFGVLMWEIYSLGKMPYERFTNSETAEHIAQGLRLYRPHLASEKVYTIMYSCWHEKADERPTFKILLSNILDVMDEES

For `CC(C)(C=C(C#N)C(=O)N1CCC[C@@H](n2c(=O)n(-c3ccc(Oc4ccccc4)cc3)c3c(N)nccc32)C1)C(=O)N1CCN(C2COC2)CC1`, the pIC50 was 7.62.

As a reminder, the pIC50 is −log10 of the IC50, conventionally taken in molar units.
